From paper PMC12223310, “Mining the heparinome for cryptic antimicrobial peptides that selectively kill Gram-negative bacteria” (Molecular Systems Biology, 2025)
Converted amounts (≈) assume the structure as drawn. Square brackets hold non-standard residues; d marks the D form. Ends that are not written are not given here. Peptide text beside a SMILES is read from it.

Experiments:
[1] = tested on: Escherichia coli; type: cell-based, Escherichia coli BW25113
Experimental: (§1) Antimicrobial activities were determined by the microtiter broth dilution method recommended by the National Committee of Laboratory Safety and Standards (NCLSS), adapted for AMPs (Wiegand et al, [2008]). Briefly, overnight bacterial cell cultures were brought to an exponential growth state (OD600 = 0.4) in MH broth and diluted to a final concentration of 5 × 10^5 CFU/mL. In all, 1:2 peptide serial dilutions were prepared in 96-well polypropylene plates (Greiner, Frickenhausen, Germany), in MH medium containing 0.2% (w/v) of bovine serum albumin (BSA) and 0.02% glacial acetic acid. […] The lowest concentration with no colonies was taken as MBC. The results are the average of three independent studies.

[2] = tested on: Acinetobacter baumannii; type: cell-based, Acinetobacter baumannii ATCC 15308
Experimental: as §1

[3] = tested on: Pseudomonas sp (Pseudomonas aeruginosa); type: cell-based, Pseudomonas aeruginosa ATCC 15915
Experimental: as §1

[4] = tested on: Staphylococcus aureus; type: cell-based, Staphylococcus aureus ATCC 12600
Experimental: as §1

[5] = tested on: Enterococcus faecium; type: cell-based, Enterococcus faecium ATCC 19434
Experimental: as §1

[6] = tested on: Listeria monocytogenes; type: cell-based, Listeria monocytogenes ATCC 19112
Experimental: as §1

[7] = tested on: A. baumannii 3878; type: cell-based
Experimental: as §1

[8] = tested on: A. baumannii 3880; type: cell-based
Experimental: as §1

[9] = tested on: E. coli 1166795; type: cell-based
Experimental: as §1

[10] = tested on: E. coli CFT073; type: cell-based
Experimental: as §1

[11] = tested on: P. aeruginosa 827632; type: cell-based
Experimental: as §1

[12] = tested on: P. aeruginosa 827651; type: cell-based
Experimental: as §1

[13] = tested on: horse erythrocytes; type: cell-based
Experimental: Peptide toxicity was tested on horse erythrocytes (Sandín et al, [2021]). Horse defibrinated blood was washed three times in phosphate buffer saline (PBS) pH 7.2 by centrifugation at 3× 3000 rpm for 10 min, to remove excess hemoglobin in the supernatant and then diluted tenfold in PBS. Next, 50 μL of erythrocytes were added to a 1.5 mL polypropylene tube and incubated with 50 μL of a 1:2 peptide serial dilution in PBS. An erythrocyte disruption (ED) control was prepared by adding 50 μL of 0.1% TritonX-100 in PBS instead of the peptides and an intact erythrocyte (IC) control by adding 50 μL of PBS alone. All samples and controls were incubated for 2 h at 37 °C. Samples were centrifuged at 3000 rpm for 3 min, and the supernatants were transferred to a polystyrene 96-well plate and inspected for ED by reading the absorbance at 540 nm in a Tecan Spark instrument (Tecan, Männedorf, Switzerland). The results are the average of three independent studies. The hemolysis percentage was calculated as: Hemolysis%=Sample−IC/ED−IC×100

[14] = in vitro; type: cell-based; conditions: human, MRC-5 cells
Experimental: (§2) Toxicity in MRC-5 and HepG2 cells was tested by the MTT assay, as described (Bello-Madruga et al, [2023]). Cell lines were maintained in Eagle’s minimum essential medium (MEMα) supplemented with 10% fetal bovine serum (FBS). Cells were cultured in 75-cm^2 flasks and then transferred to polystyrene 96-well plates, at 3 × 10^4 cells per well, and incubated overnight for attachment to the well surface. Then culture media was removed and 1:2 peptide serial dilutions in MEMα were added to each well and later incubated for 4 h. After incubation, peptides were removed and 100 μL of 0.5 mg/mL MTT staining solution in MEMα supplemented with 10% FBS was added to cells and incubated for 1.5 h at 37 °C. Formazan crystals in living cells were detected after disruption with 200 μL dimethyl sulfoxide and then absorbance was measured at 570 nm in a Tecan Spark instrument (Tecan, Männedorf, Switzerland). The results are the average of three independent studies.

[15] = tested on: MRC-5 cells; assay: in vitro; type: cell-based
Experimental: as §2

[16] = Cytotoxicity, MTT assay; type: cell-based; conditions: human, HepG2 cells, 4 h peptide incubation in MEMα, average of three studies, read-out: LC50 (HepG2 cells)
Experimental: as §2

[17] = type: in vitro ADME
Experimental: 500 µL of 1 mM peptide stock in MiliQ water were mixed with 500 µL of human serum (Sigma-Aldrich, St. Louis, MO, USA). The mixture was incubated at 37 °C with shaking, and at various time points aliquots were taken and proteolysis was stopped with cold acetonitrile (80% in MiliQ water). The samples were chilled at 4 °C for 10 min to precipitate serum proteins, and centrifuged at 13,000 rpm at 4 °C for 15 min. The supernatant was collected and analyzed by LC and LC-MS with a –60% linear gradient of solvent B (0.036%TFA in ACN) into A (0.045% TFA in H2O) over 15 min at 1 mL/min flow rate. Unaltered peptide was determined by peak integration, expressed as the percent of the amount at 0 min, and data were fitted to a one-phase exponential decay model using GraphPad Prism 8.01 to estimate half-life time (t1/2). The results are the average of three independent experiments.

## HNLFRKLTHRLFRRNFGYTLRSV-NH2 [HBP-5]
[1]
  MBC E. coli: 0.4 µM
  MIC E. coli: 0.4 µM
[2]
  MBC A. baumannii: 0.2 µM
  MIC A. baumannii: 0.2 µM
[3]
  MBC Pseudomonas sp: 0.8 µM
  MIC Pseudomonas sp: 0.8 µM
[4]
  MBC S. aureus: 6.3 µM
  MIC S. aureus: 6.3 µM
[5]
  MBC E. faecium: 6.3 µM
  MIC E. faecium: 3.1 µM
[6]
  MBC L. monocytogenes: 3.1 µM
  MIC L. monocytogenes: 1.6 µM
[7]
  MBC A. baumannii 3878: 0.2 µM
  MIC A. baumannii 3878: 0.2 µM
[8]
  MBC A. baumannii 3880: 0.4 µM
  MIC A. baumannii 3880: 0.4 µM
[9]
  MBC E. coli 1166795: < 0.1 µM
  MIC E. coli 1166795: < 0.1 µM
[10]
  MBC E. coli CFT073: 0.8 µM
  MIC E. coli CFT073: 0.4 µM
[11]
  MBC P. aeruginosa 827632: 1.6 µM
  MIC P. aeruginosa 827632: 1.6 µM
[12]
  MBC P. aeruginosa 827651: 1.6 µM
  MIC P. aeruginosa 827651: 0.8 µM
[13]
  Hemolysis (250 µM peptide): 23 ± 1
[14]
  CC50 at 4 h: 69 ± 2 µM
[15]
  LC50 (MRC-5 cells, µM): 69 µM
[16]
  CC50 at 4 h: 80 µM

## CC(C)C[C@@H](NC(=O)[C@@H](CC(N)=O)NC(=O)[C@H](N)Cc1c[nH]cn1)C(=O)N[C@H](Cc1ccccc1)C(=O)N[C@H](CCCNC(=N)N)C(=O)N[C@H](CCCCN)C(=O)N[C@H](CC(C)C)C(=O)N[C@@H](C(=O)N[C@H](Cc1c[nH]cn1)C(=O)N[C@H](CCCNC(=N)N)C(=O)N[C@H](CC(C)C)C(=O)N[C@H](Cc1ccccc1)C(=O)N[C@H](CCCNC(=N)N)C(=O)N[C@H](CCCNC(=N)N)C(=O)N[C@H](CC(N)=O)C(=O)N[C@H](Cc1ccccc1)C(=O)NCC(=O)N[C@H](Cc1ccc(O)cc1)C(=O)N[C@@H](C(=O)N[C@H](CC(C)C)C(=O)N[C@H](CCCNC(=N)N)C(=O)N[C@H](CO)C(=O)N[C@@H](C(N)=O)C(C)C)[C@H](C)O)[C@H](C)O [dHBP-5] (H-[dH][dN][dL][dF][dR][dK][dL][dT][dH][dR][dL][dF][dR][dR][dN][dF]G[dY][dT][dL][dR][dS][dV]-NH2)
[1]
  MIC E. coli: 0.1 µM (≈ 0.293 µg/mL)
[2]
  MIC A. baumannii: 0.2 µM (≈ 0.586 µg/mL)
[3]
  MIC Pseudomonas sp: 0.2 µM (≈ 0.586 µg/mL)
[4]
  MIC S. aureus: 0.8 µM (≈ 2.35 µg/mL)
[6]
  MIC L. monocytogenes: 0.4 µM (≈ 1.17 µg/mL)
[13]
  Hemolysis (250 µM peptide): 29 ± 1
[14]
  CC50 at 4 h: 30 ± 1 µM
[17]
  half-life in human serum: exceeding 6 hours
